What was measured:
[1] = system: intracellular nitric oxide level; test: Enhancement of intracellular nitric oxide; assay type: cell-based; conditions: equimolar (40 μM)
TAase = TAase activity; assay type: biochemical
[2] = system: platelets (ADP-induced platelet aggregation); test: ADP-induced platelet aggregation, ex vivo after administration by gavage; conditions: po, suspended in water, sonicated, given by gavage, equimolar dose (40 μM), ADP 15 μM
Text: C. Preparation of Platelet Rich Plasma for the EX VIVO Studies

[3] = system: platelets (ADP-induced platelet aggregation); test: ADP-induced platelet aggregation, in vitro (platelet rich plasma); assay type: cell-based; conditions: test compounds equimolar (40 μM); ADP 15 μM
Text: Preparation of Platelet Rich Plasma for the IN VITRO Studies (7)

| SMILES | Enhancement of Nitric Oxide (folds) [1] | TAase Activity (Units) (TAase) | inhibition at 40 µM [2] [%] | ADP-induced Platelet aggregation (% inhibition) IN VITRO [3] |
| --- | --- | --- | --- | --- |
| CC(=O)Oc1ccccc1C(=O)O | Nil | Nil | 55 | Nil |
| COC(=O)C(c1ccccc1Cl)N1CCc2sccc2C1 (centres unmarked) | Nil | Nil | 65 | Nil |

— US20110201634A1, “DIHYDROPYRIDIMIDINONE COMPOUNDS FOR THE TREATMENT OF CARDIOVASCULAR DISEASES AND PROCESS FOR PREPARING THE SAME” (DELHI UNIVERSITY, priority 2008, published 2011)
